Molecular target: T1, D1 dopamine receptor (Rattus norvegicus, UniProt P18901)
T1 construct: The longest open reading frame in this cDNA codes for a 487 residue protein; expressed in transfected cells; host or cells: COS-7 cells (transient, plasmid pSRalpha-D1)
Assay type: cell-based
Details: agonist 1 uM, with 0.5 uM propranolol

T1 sequence (P18901 whole entry): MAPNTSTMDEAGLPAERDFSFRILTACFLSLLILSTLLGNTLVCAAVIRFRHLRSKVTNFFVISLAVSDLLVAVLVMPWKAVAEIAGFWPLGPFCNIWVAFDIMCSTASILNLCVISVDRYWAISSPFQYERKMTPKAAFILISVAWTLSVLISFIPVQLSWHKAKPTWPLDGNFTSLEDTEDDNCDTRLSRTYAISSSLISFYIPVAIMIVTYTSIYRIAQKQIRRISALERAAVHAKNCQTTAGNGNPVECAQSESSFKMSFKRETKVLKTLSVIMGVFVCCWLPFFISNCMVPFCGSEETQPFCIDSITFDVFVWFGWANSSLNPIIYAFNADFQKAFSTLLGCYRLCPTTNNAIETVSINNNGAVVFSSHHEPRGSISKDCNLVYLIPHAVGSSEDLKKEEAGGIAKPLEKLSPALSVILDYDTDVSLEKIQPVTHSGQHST

SMILES	stimulation of cAMP accumulation (in words)
CNC[C@H](O)c1ccc(O)c(O)c1 [epinephrine]	low potency relative to dopamine
Oc1cc2c(cc1O)C(c1ccccc1)CNCC2 (stereo not drawn) [SKF-38393 (-)isomer, SKF-38393]	lower potency

Reference: patent US5610282A (The United States of America as represented by the …, priority 1995, dated 1997)
